Assay results taken from US10092546B2, “Imidazole derivatives” (Hoffman-La Roche Inc., priority 2015, dated 2018).

Columns and labels:
human EAAT3 = target: T1, human EAAT3 (Homo sapiens, UniProt P43005); assay: FLIPR Membrane Potential (FMP) assay, antagonist potency at human EAAT3; format: cell-based; conditions: HEK-293 cells stably expressing human EAAT3; L-glutamate as agonist at EC80; antagonist applied 15 min before; Kb by Cheng-Prusoff from IC50
T1 construct: expressed in transfected cells
T1 sequence (P43005 1-524): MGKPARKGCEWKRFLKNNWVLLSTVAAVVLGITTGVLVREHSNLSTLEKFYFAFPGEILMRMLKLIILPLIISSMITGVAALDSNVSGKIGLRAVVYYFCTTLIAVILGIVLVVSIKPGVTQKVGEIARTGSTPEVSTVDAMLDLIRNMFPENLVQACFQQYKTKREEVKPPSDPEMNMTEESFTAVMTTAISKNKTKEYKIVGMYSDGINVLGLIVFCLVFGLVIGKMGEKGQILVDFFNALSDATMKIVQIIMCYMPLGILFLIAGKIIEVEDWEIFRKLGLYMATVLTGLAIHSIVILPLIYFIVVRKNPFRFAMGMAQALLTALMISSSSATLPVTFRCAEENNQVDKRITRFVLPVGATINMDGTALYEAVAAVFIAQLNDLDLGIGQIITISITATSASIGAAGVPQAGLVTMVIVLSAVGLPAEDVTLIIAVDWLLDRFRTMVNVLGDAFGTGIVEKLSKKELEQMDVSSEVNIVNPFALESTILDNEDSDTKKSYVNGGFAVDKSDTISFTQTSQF
Description: The FLIPR Membrane Potential (FMP) Assay
HEK-293 cells stably expressing human EAAT3 were seeded at 55 000 cells/well in growth medium (DMEM glutamate free (Invitrogen 11960-044), 1% Pen Strep (10 ml/l GIBCO BRL No 15140-023), 10% FCS non dialysed heat inactivated, 5 mg/l puromycin) in poly-D-lysine treated 96-well black microtiter plates with clear-bottom. After 24 h, the growth medium was removed and 100 μl/well of Krebs buffer (140 mM NaCl, 4.7 mM KCl, 2.5 mM CaCl2, 1.2 mM MgCl2, 11 mM HEPES, 10 mM D-glucose, pH=7.4) added. The cells were then loaded by adding 100 μl/well FMP assay dye (FLIPR Membrane Potential assay reagent, Molecular Devices). The 96-well plates were then incubated at 37° C. for 1 h. The depolarization of the cells will cause more dye to enter in the cells, where it will bind to intracellular proteins and lipids and cause an increase in the fluorescence signal. Antagonist potency at human EAAT3 was determined by using L-glutamate as agonist at a concentration which gives 80% of the maximum response. The antagonists were applied 15 min before the application of the agonist L-glutamate. The assays were performed at room temperature and measurements done by using a Fluorometric Imaging Plate Reader (FLIPR, Molecular Devices) and filter #2. Responses were measured as peak increase in fluorescence minus basal (i.e. fluorescence without addition of L-glutamate). Kb was determined using the Cheng-Prusoff equation Kb=IC50/[1+(A/EC50)], where IC50 is the concentration of the antagonist producing 50% inhibition, A is the concentration of the agonist against which the IC50 is being determined (at EC80) and EC50 is the concentration of the agonist producing 50% […].

Row | melting point | Kb (human EAAT3) | SMILES
1 | 199 °C | 110 nM | CC(C)c1nccn1-c1cc(C(=O)NC(C)(C)C)cc(-c2ccc(F)cc2)n1 [Example 2, N-tert-Butyl-2-(4-fluorophenyl)-6-(2-propan-2-yl-imidazol-1-yl)-pyridine-4-carboxamide]
2 | 212 °C | 370 nM | CC(C)(C)NC(=O)c1cc(-c2ccc(F)cc2)nc(-n2ccnc2CO)c1 [Example 14, N-tert-Butyl-2-(4-fluorophenyl)-6-[2-(hydroxymethyl)-imidazol-1-yl]-pyridine-4-carboxamide]
3 | 225 °C | 260 nM | CC(C)(C)c1nccn1-c1cc(C(=O)NC(C)(C)C(F)(F)F)cc(-c2ccc(Cl)cc2)n1 [Example 25, 2-(2-tert-Butylimidazol-1-yl)-6-(4-chlorophenyl)-N-(1,1,1-trifluoro-2-methylpropan-2-yl)-pyridine-4-carboxamide]
4 | 232 °C | 110 nM | Cc1ccc(-c2cc(C(=O)NC(C)(C)C)cc(-n3ccnc3C(C)(C)C)n2)cc1 [Example 27, N-tert-Butyl-2-(2-tert-butyl-imidazol-1-yl)-6-(4-methylphenyl)-pyridine-4-carboxamide]
5 | – | 69 nM | CCC(C)(C)NC(=O)c1cc(-c2ccc(F)cc2)nc(-n2ccnc2C(C)C)c1 [Example 39, 2-(4-Fluorophenyl)-N-(2-methylbutan-2-yl)-6-(2-propan-2-ylimidazol-1-yl)-pyridine-4-carboxamide]
6 | – | 360 nM | CC(C)c1nccn1-c1cc(C(=O)NC(C)(C)C#N)cc(-c2ccc(Cl)cc2)n1 [Example 40, 2-(4-Chlorophenyl)-N-(2-cyanopropan-2-yl)-6-(2-propan-2-yl-imidazol-1-yl)-pyridine-4-carboxamide]

The next lines start with the compound.

Row | SMILES | melting point | Kb (human EAAT3)
7 | CC(C)(C)NC(=O)c1cc(-c2ccc(F)c(F)c2)nc(-n2ccnc2C(C)(C)C)c1 [Example 26, N-tert-Butyl-2-(2-tert-butyl-imidazol-1-yl)-6-(3,4-difluorophenyl)-pyridine-4-carboxamide] | 244 °C | 370 nM
8 | CC(C)(C)NC(=O)c1cc(-c2ccc(C3CC3)cc2)nc(-n2ccnc2C(C)(C)C)c1 [Example 28, N-tert-Butyl-2-(2-tert-butyl-imidazol-1-yl)-6-(4-cyclopropyl-phenyl)-pyridine-4-carboxamide] | 226 °C | 670 nM
9 | COc1ccc(-c2cc(C(=O)NC(C)(C)C)cc(-n3ccnc3C(C)(C)C)n2)cc1 [Example 31, N-tert-Butyl-2-(2-tert-butyl-imidazol-1-yl)-6-(4-methoxy-phenyl)-pyridine-4-carboxamide] | 235 °C | 240 nM
10 | CC(C)(C)NC(=O)c1cc(-c2ccc(C#N)cc2)nc(-n2ccnc2C(C)(C)C)c1 [Example 32, N-tert-Butyl-2-(2-tert-butyl-imidazol-1-yl)-6-(4-cyano-phenyl)-pyridine-4-carboxamide] | 245 °C | 290 nM
